Measurements from DBAASP.
≈ marks a conversion by molar mass, not a printed value. Where “and” joins values, the source holds several entries; their conditions need not be identical. Equal entries are not always repeated.

Tests used:
Assay in all cases: ≥ marks a high value that may be exact or a test limit, other limits are often not marked, values filed in µg/mL are converted to µM
[1] = tested on: Staphylococcus aureus ATCC 33591
[2] = tested on: Klebsiella pneumoniae ATCC 700603
[3] = tested on: Escherichia coli ATCC 25922
[4] = tested on: Staphylococcus aureus ATCC 29213
[5] = tested on: Pseudomonas aeruginosa ATCC 27853
[6] = tested on: Staphylococcus aureus ATCC 700699
[7] = tested on: Staphylococcus aureus ATCC 25923
[8] = tested on: Enterococcus faecalis 981
[9] = tested on: Candida glabrata 090902
[10] = tested on: Nocardia asteroides 201118
[11] = tested on: Escherichia coli ATCC 10536
[12] = tested on: Staphylococcus aureus ATCC 9144
[13] = tested on: Bacillus subtilis ATCC 6633
[14] = tested on: Escherichia coli DH5alpha
[15] = tested on: Candida albicans ATCC 36232
[16] = tested on: Pseudomonas aeruginosa ATCC 9027
[17] = tested on: Escherichia coli ATCC 2592
[18] = tested on: Micrococcus luteus ATCC 9341
[19] = tested on: Xanthomonas campestris pv. Vesicatoria 2133-2
[20] = tested on: Erwinia amylovora PMV 6076
[21] = tested on: Pseudomonas syringae pv. syringae EPS 94
[22] = tested on: Enterobacter cloacae ATCC 13047
[23] = tested on: Candida albicans ATCC 90028

| Compound | MIC [1] | MIC [2] | MIC [3] | MIC [4] | MIC [5] | MIC [6] | MIC [11] | MIC [12] | MIC [14] | also measured |
| --- | --- | --- | --- | --- | --- | --- | --- | --- | --- | --- |
| CC[C@H](C)[C@H](NC(=O)[C@H](CC(=O)O)NC(=O)[C@H](CCCCN)NC(=O)[C@H](C)NC(=O)[C@H](C)NC(=O)CNC(=O)[C@H](CCCCN)NC(=O)[C@H](CC(C)C)NC(=O)[C@@H](NC(=O)[C@H](CC(=O)O)NC(=O)[C@@H](NC(=O)[C@@H](NC(=O)[C@H](C)N)C(C)C)C(C)C)[C@@H](C)CC)C(=O)N[C@@H](C)C(=O)NCC(=O)N[C@@H](Cc1cnc[nH]1)C(=O)N[C@@H](CC(C)C)C(=O)N[C@@H](C)C(=O)N[C@@H](CO)C(=O)N[C@@H](CCCCN)C(=O)N[C@H](C(=O)N[C@@H](CCSC)C(=O)N[C@@H](CC(N)=O)C(=O)N[C@@H](CCCCN)C(=O)N[C@@H](CC(C)C)C(N)=O)C(C)C [AVVDILKGAAKDIAGHLASKVMNKL] | ≥ 100 µM | > 100 µM | > 100 µM | > 100 µM | > 100 µM | ≥ 100 µM |  |  |  |  |
| CC(C)C[C@H](NC(=O)[C@H](CC(C)C)NC(=O)CNC(=O)[C@H](CO)NC(=O)[C@H](CC(C)C)NC(=O)[C@H](CC(C)C)NC(=O)[C@H](CCCCN)NC(=O)CNC(=O)[C@@H](NC(=O)[C@H](Cc1ccccc1)NC(=O)[C@@H]1CCCN1C(=O)[C@H](CC(C)C)NC(=O)[C@@H](N)Cc1ccccc1)C(C)C)C(N)=O [FLPFVGKLLSGLL] |  |  |  |  |  |  |  |  |  | MIC [7]: 12.5 µM (≈ 17.5 µg/mL); MIC [8]: 25 µM (≈ 35.1 µg/mL); MIC [9]: ≥ 100 µM; MIC [10]: 12.5 µM (≈ 17.5 µg/mL) |
| CC[C@H](C)[C@H](NC(=O)[C@H](CC(=O)O)NC(=O)[C@H](CCCCN)NC(=O)[C@H](C)NC(=O)[C@H](C)NC(=O)CNC(=O)[C@H](CCCCN)NC(=O)[C@H](CC(C)C)NC(=O)[C@@H](NC(=O)[C@H](CC(=O)O)NC(=O)[C@@H](NC(=O)[C@@H](NC(=O)CN)C(C)C)C(C)C)[C@@H](C)CC)C(=O)N[C@@H](C)C(=O)NCC(=O)N[C@@H](Cc1cnc[nH]1)C(=O)N[C@@H](CC(C)C)C(=O)N[C@@H](C)C(=O)N[C@@H](C)C(=O)N[C@@H](CCCCN)C(=O)N[C@H](C(=O)N[C@@H](CCSC)C(=O)N[C@@H](CC(N)=O)C(=O)N[C@@H](CCCCN)C(=O)N[C@@H](CC(C)C)C(N)=O)C(C)C [GVVDILKGAAKDIAGHLAAKVMNKL] | ≥ 100 µM | 100 µM (≈ 253 µg/mL) | 25 µM (≈ 63.3 µg/mL) | > 100 µM | 100 µM (≈ 253 µg/mL) | ≥ 100 µM |  |  |  |  |
| CC(C)C[C@H](NC(=O)[C@H](CS)NC(=O)[C@H](Cc1cnc[nH]1)NC(=O)[C@H](C)NC(=O)[C@H](C)NC(=O)[C@H](CS)NC(=O)[C@H](C)NC(=O)[C@H](C)NC(=O)[C@@H](N)CCCCN)C(=O)N[C@@H](Cc1c[nH]c2ccccc12)C(=O)N[C@@H](CCCN=C(N)N)C(N)=O [KAACAAHCLWR] |  |  |  |  |  |  |  |  |  | MIC [15]: ≥ 163 µM; MIC [16]: > 163 µM; MIC [17]: ≥ 163 µM; MIC [18]: ≥ 163 µM |
| CC[C@H](C)[C@H](NC(=O)[C@H](CCCCN)NC(=O)[C@H](CCCCN)NC(=O)[C@H](Cc1ccccc1)NC(=O)[C@H](CC(C)C)NC(=O)[C@H](CCCCN)NC(=O)[C@H](CCCCN)NC(=O)[C@H](CC(C)C)NC(=O)[C@H](Cc1ccc(O)cc1)NC(=O)[C@H](CCCCN)NC(=O)[C@H](CC(C)C)NC(=O)[C@@H](NC(=O)[C@H](CCCCN)NC(=O)[C@H](CCCCN)NC(=O)[C@H](Cc1ccccc1)NC(=O)[C@H](CC(C)C)NC(=O)[C@H](CCCCN)NC(=O)[C@@H](N)CCCCN)[C@@H](C)CC)C(=O)N[C@@H](CC(C)C)C(=O)N[C@@H](CCCCN)C(=O)N[C@@H](Cc1ccc(O)cc1)C(=O)N[C@@H](CC(C)C)C(=O)N[C@@H](CCCCN)C(=O)N[C@@H](CC(=O)O)C(=O)N[C@@H](CCC(=O)O)C(=O)N[C@@H](CC(C)C)C(=O)O [KKLFKKILKYLKKLFKKILKYLKDEL] |  |  |  |  |  |  |  |  |  | MIC [19]: 14.1 µM (≈ 46.8 µg/mL); MIC [20]: 14.1 µM (≈ 46.8 µg/mL); MIC [21]: 14.1 µM (≈ 46.8 µg/mL) |
| CC[C@H](C)[C@H](NC(=O)[C@H](C)NC(=O)[C@H](CCCCN)NC(=O)[C@@H](NC(=O)[C@@H](NC(=O)[C@@H](N)C(C)C)[C@@H](C)CC)C(C)C)C(=O)N[C@@H](C)C(=O)N[C@H](C(=O)N[C@@H](CC(C)C)C(=O)N[C@@H](C)C(=O)N[C@@H](CO)C(=O)N[C@@H](CCCCN)C(=O)N[C@@H](CC(C)C)C(=O)N[C@@H](CC(C)C)C(=O)O)[C@@H](C)O [VIVKAIATLASKLL] |  | 55.6 µM (≈ 80 µg/mL) |  |  |  |  |  |  |  | MIC [22]: ≥ 55.6 µM; MIC [23]: 27.8 µM (≈ 40 µg/mL) |

More lines, main results first:

| MIC [1] | MIC [2] | MIC [3] | MIC [4] | MIC [5] | MIC [6] | MIC [11] | MIC [12] | MIC [14] | Compound | also measured |
| --- | --- | --- | --- | --- | --- | --- | --- | --- | --- | --- |
|  |  |  |  |  |  | 2.3 µM (≈ 6.97 µg/mL) | 3.2 µM (≈ 9.7 µg/mL) | 2.6 µM (≈ 7.88 µg/mL) | CC[C@H](C)[C@H](NC(=O)[C@H](CCCN=C(N)N)NC(=O)[C@@H](NC(=O)[C@@H](NC(=O)[C@@H]1CCCN1C(=O)[C@@H](NC(=O)[C@@H](NC(=O)[C@@H](NC(=O)[C@@H]1CCCN1C(=O)CNC(=O)[C@H](Cc1ccc(O)cc1)NC(=O)[C@H](CCCCN)NC(=O)[C@H](CCCCN)NC(=O)[C@H](Cc1c[nH]c2ccccc12)NC(=O)[C@H](C)NC(=O)[C@H](CCCN=C(N)N)NC(=O)[C@H](CC(C)C)NC(=O)[C@H](C)NC(=O)[C@H](CCCCN)NC(=O)[C@H](CCCN=C(N)N)NC(=O)CNC(=O)[C@H](CC(C)C)NC(=O)[C@H](CO)NC(=O)[C@H](CCCN=C(N)N)NC(=O)[C@H](CC(C)C)NC(=O)CNC(=O)CN)[C@@H](C)CC)[C@@H](C)CC)C(C)C)[C@@H](C)CC)[C@@H](C)CC)C(N)=O [GGLRSLGRKALRAWKKYGPIIVPIIRI] | MIC [13]: 1.5 µM (≈ 4.55 µg/mL) |
|  |  |  |  |  |  | 2.9 µM and 7.3 µM | 2.7 µM (≈ 8.3 µg/mL) | 2.9 µM (≈ 8.91 µg/mL) | CC[C@H](C)[C@H](NC(=O)[C@@H](NC(=O)[C@@H]1CCCN1C(=O)[C@H](CO)NC(=O)[C@H](CC(C)C)NC(=O)[C@H](CCCCN)NC(=O)[C@H](CCCCN)NC(=O)[C@H](Cc1ccccc1)NC(=O)[C@H](CC(C)C)NC(=O)[C@H](CCCCN)NC(=O)[C@H](CCCCN)NC(=O)[C@H](C)NC(=O)[C@H](CCCCN)NC(=O)[C@H](CCCCN)NC(=O)[C@H](CCCN=C(N)N)NC(=O)[C@H](Cc1ccccc1)NC(=O)[C@H](CCCN=C(N)N)NC(=O)[C@H](CCCCN)NC(=O)[C@H](C)NC(=O)[C@H](CCCN=C(N)N)NC(=O)CN)C(C)C)C(=O)N1CCC[C@H]1C(=O)N[C@@H](CC(C)C)C(=O)N[C@@H](CC(C)C)C(=O)N[C@@H](Cc1cnc[nH]1)C(=O)N[C@@H](CC(C)C)C(N)=O [GRAKRFRKKAKKLFKKLSPVIPLLHL] |  |
|  |  |  |  |  |  | 3.2 µM and 7.4 µM | 2.8 µM (≈ 8.82 µg/mL) | 2.9 µM (≈ 9.13 µg/mL) | CC[C@H](C)[C@H](NC(=O)[C@@H](NC(=O)[C@@H]1CCCN1C(=O)[C@H](CO)NC(=O)[C@H](CC(C)C)NC(=O)[C@H](CCCCN)NC(=O)[C@H](CCCCN)NC(=O)[C@H](Cc1ccccc1)NC(=O)[C@H](CC(C)C)NC(=O)[C@H](CCCCN)NC(=O)[C@H](CCCCN)NC(=O)[C@H](C)NC(=O)[C@H](CCCCN)NC(=O)[C@H](CCCCN)NC(=O)[C@H](CCCN=C(N)N)NC(=O)[C@H](Cc1ccccc1)NC(=O)[C@H](CCCN=C(N)N)NC(=O)[C@H](CCCCN)NC(=O)[C@H](Cc1ccccc1)NC(=O)[C@H](CCCN=C(N)N)NC(=O)CN)C(C)C)C(=O)N1CCC[C@H]1C(=O)N[C@@H](CC(C)C)C(=O)N[C@@H](CC(C)C)C(=O)N[C@@H](Cc1cnc[nH]1)C(=O)N[C@@H](CC(C)C)C(N)=O [GRFKRFRKKAKKLFKKLSPVIPLLHL] |  |
| 25 µM (≈ 62.6 µg/mL) | 25 µM (≈ 62.6 µg/mL) | 3.12 µM (≈ 7.81 µg/mL) | 100 µM (≈ 250 µg/mL) | 50 µM (≈ 125 µg/mL) | ≥ 50 µM |  |  |  | CC[C@H](C)[C@H](NC(=O)[C@H](C)NC(=O)[C@H](CCCCN)NC(=O)[C@H](C)NC(=O)[C@H](C)NC(=O)CNC(=O)[C@H](CCCCN)NC(=O)[C@H](CC(C)C)NC(=O)[C@@H](NC(=O)[C@H](CC(=O)O)NC(=O)[C@@H](NC(=O)[C@@H](NC(=O)CN)C(C)C)C(C)C)[C@@H](C)CC)C(=O)N[C@@H](C)C(=O)NCC(=O)N[C@@H](Cc1cnc[nH]1)C(=O)N[C@@H](CC(C)C)C(=O)N[C@@H](C)C(=O)N[C@@H](CO)C(=O)N[C@@H](CCCCN)C(=O)N[C@H](C(=O)N[C@@H](CCSC)C(=O)N[C@@H](CC(N)=O)C(=O)N[C@@H](CCCCN)C(=O)N[C@@H](CC(C)C)C(N)=O)C(C)C [GVVDILKGAAKAIAGHLASKVMNKL] |  |
